Measured values reported in patent publication US4857641A, “C.12 modified erythromycin A derivatives” (Pfizer Inc., priority 1987, dated 1989).
In brackets after ≈: the same amount, converted by molar mass. Where two headings read alike, the source gives them in different places.

Assays:
Assay in all cases: in vitro antibacterial activity (MIC), BHI agar dilution
Type in all cases: cell-based
Staph. epid. = Staph. epid. 111, 18 hours at 37° C
Description: (§1) The compounds of the formula (3) are tested for in vitro antibacterial activity by standard methods in which the minimum inhibitory concentrations (MIC's) in mcg/ml against one or more microorganisms is measured. One such procedure is the one recommended by the International Collaborative Study on Antibiotic Sensitivity Testing (Ericcson and Sherris, Acta. Pathologica et Microbiologia Scandinav, Supp. 217, Section B: 64-68 [1971]), and employs brain heart infusion (BHI) agar and an inocula replicating device. Overnight growth tubes are diluted 100 fold for use as the standard inoculum (20,000-10,000 cells in approximately 0.002 ml. are placed on the agar surface; 20 ml. of BHI agar/dish). Twelve 2 fold dilutions of the test compound are employed, with initial concentration of the test drug being 200 mcg/ml. Single colonies are disregarded when reading plates after 18 hours at 37° C. The susceptibility (MIC) of the test organism is accepted as the lowest concentration of compound capable of producing complete inhibition of growth as judged by the naked eye.

Strep. faec. = Strep. faec. 006, 18 hours at 37° C
Description: as §1

Pat. mult. = test system: Pat. mult.
Description: as §1

E. coli = E. coli 470, 18 hours at 37° C
Description: as §1

Neis. sic. = Neis. sic. 000, 18 hours at 37° C
Description: as §1

Hem. infl. = test system: Hem. infl.
Description: as §1

Strep. pyog. = test system: Strep. pyog.
Description: as §1

Staph. aureus = test system: Staph. aureus
Description: as §1

Strep. pneum. = Strep. pneum. 012, 18 hours at 37° C
Description: as §1

[1] = Staph. aureus 052, 18 hours at 37° C
[2] = Staph. aureus 110, 18 hours at 37° C
[3] = Escherichia coli, read-out: MIC
[4] = 18 h, Hem. infl. 038, 18 hours at 37° C, read-out: MIC
[5] = 18 h, Hem. infl. 042, 18 hours at 37° C, read-out: MIC
[6] = 18 h, Hem. infl. 073, 18 hours at 37° C, read-out: MIC
[7] = 18 h, Hem. infl. 078, 18 hours at 37° C, read-out: MIC
[8] = 18 h, Hem. infl. 081, 18 hours at 37° C, read-out: MIC
[9] = 18 h, Strep. pyog. 054, 18 hours at 37° C, read-out: MIC
[10] = 18 h, Strep. pyog. 203, 18 hours at 37° C, read-out: MIC
[11] = Staphylococcus aureus, Staph. aureus 005, 18 hours at 37° C, read-out: MIC

With “4"-0-Acetyl-12,12'-anhydro-9-deoxo-11-deoxy-9R,11-(thiocarbonyldioxy)erythromycin A [Compound 3a]” the MIC (Staph. epid.) was 12.5 µg/mL, the MIC (Strep. faec.) was 50 µg/mL and the MIC (Pat. mult.; Pat. mult. 001, BHI agar, 18 hours at 37° C) was 25 µg/mL. For the same compound, the MIC (E. coli) was 6.25 µg/mL, the MIC (Neis. sic.) was 50 µg/mL and the MIC (Hem. infl.; Hem. infl. 012, 18 hours at 37° C) was > 50 µg/mL. For the same compound, the MIC (Hem. infl.; Hem. infl. 038, 18 hours at 37° C) was > 50 µg/mL, the MIC (Hem. infl.; Hem. infl. 042, 18 hours at 37° C) was 50 µg/mL and the MIC (Hem. infl.; Hem. infl. 073, 18 hours at 37° C) was 50 µg/mL. It also gave an MIC (Hem. infl.; Hem. infl. 078, 18 hours at 37° C) of 50 µg/mL, an MIC (Hem. infl.; Hem. infl. 081, 18 hours at 37° C) of 50 µg/mL and an MIC (Strep. pyog.; Strep. pyog. 054, 18 hours at 37° C) of 50 µg/mL. It also gave an MIC (Strep. pyog.; Strep. pyog. 203, 18 hours at 37° C) of 3.12 µg/mL, an MIC (Staph. aureus; Staph. aureus 005, 18 hours at 37° C) of 50 µg/mL and an MIC (Staph. aureus; [1]) of 50 µg/mL. It also gave an MIC (Staph. aureus; [2]) of 50 µg/mL and an MIC (Strep. pneum.) of 3.12 µg/mL.

`C=C1C(CC)OC(=O)C(C)C(OC2CC(C)(OC)C(OC(C)=O)C(C)O2)C(C)C(OC2OC(C)CC(N(C)C)C2O)C(C)(O)CC(C)C(O)C(C)C1O` (stereo not drawn) [Compound 3b, 4"-O-Acetyl-12,12'anhydro-9-deoxo-9R-hydroxyerythromycin A] was tested, and the MIC (Staph. epid.; read-out: MIC) was > 50 µg/mL, the MIC (Strep. faec.; read-out: MIC) was > 50 µg/mL and the MIC (Pat. mult.; 18 h) was 25 µg/mL (≈ 32.9 µM). The MIC (E. coli; [3]) was 25 µg/mL (≈ 32.9 µM), the MIC (Neis. sic.; read-out: MIC) was 50 µg/mL (≈ 65.8 µM) and the MIC (Hem. infl.; [4]) was 50 µg/mL (≈ 65.8 µM). The MIC (Hem. infl.; [5]) was > 50 µg/mL, the MIC (Hem. infl.; [6]) was > 50 µg/mL and the MIC (Hem. infl.; [7]) was > 50 µg/mL. The MIC (Hem. infl.; [8]) was > 50 µg/mL, the MIC (Strep. pyog.; [9]) was > 50 µg/mL and the MIC (Strep. pyog.; [10]) was 3.12 µg/mL (≈ 4.11 µM). The MIC (Staph. aureus; [1]) was > 50 µg/mL, the MIC (Staph. aureus; [2]) was > 50 µg/mL and the MIC (Staph. aureus; [11]) was > 50 µg/mL.

For `CCC1OC(=O)C(C)C(OC2CC(C)(OC)C(OC(C)=O)C(C)O2)C(C)C(OC2OC(C)CC(N(C)C)C2O)C(C)(O)CC(C)C(O)C(C)C(O)C1(O)CO` (stereo not drawn) [Compound 3d, 4"-O-Acetyl-9-deoxo-9R-12'-dihydroxyerythromycin A], the MIC (Staph. epid.; read-out: MIC) was > 50 µg/mL, the MIC (Strep. faec.; read-out: MIC) was 25 µg/mL (≈ 31.5 µM) and the MIC (Pat. mult.; Pat. mult. 001, BHI agar, 18 hours at 37° C, read-out: MIC) was 50 µg/mL (≈ 63 µM). For the same compound, the MIC (E. coli; [3]) was 12.5 µg/mL (≈ 15.7 µM), the MIC (Neis. sic.; read-out: MIC) was > 50 µg/mL and the MIC (Hem. infl.; [4]) was > 50 µg/mL. For the same compound, the MIC (Hem. infl.; [5]) was 50 µg/mL (≈ 63 µM), the MIC (Hem. infl.; [6]) was 50 µg/mL (≈ 63 µM) and the MIC (Hem. infl.; [7]) was > 50 µg/mL. The MIC (Hem. infl.; [8]) was > 50 µg/mL, the MIC (Strep. pyog.; [9]) was > 50 µg/mL and the MIC (Strep. pyog.; [10]) was 3.12 µg/mL (≈ 3.93 µM). The MIC (Staph. aureus; [1]) was > 50 µg/mL, the MIC (Staph. aureus; [2]) was > 50 µg/mL and the MIC (Staph. aureus; [11]) was > 50 µg/mL.
